PubChem BioAssay AID2060902 (Molecular Pharmacology Branch, DTP, NCI, 2025)

Test system: 485368-065-R3-J5-PDC spheroids with HUVEC/MSC, viability
Assay: Anticancer human tumor 485368-065-R3-J5-PDC patient-derived pancreatic carcinoma cell line growth inhibition [RAS]
Settings: for IC50: curve of first compound; for viability, T/C: stronger effect = lower value
Procedure, shortened: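 Tumour cells grown as complex spheroids with HUVEC endothelial cells and mesenchymal stem cells, treated with RAS pathway inhibitor combinations. Each agent spans half-log steps from near clinical Cmax, or 10 microM where Cmax is unknown.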

[1] = second compound 0.000949 µM, first compound 0.0316 µM
[2] = second compound 0.000949 µM, first compound 0.1 µM
[3] = second compound 0.000949 µM, first compound 0.316 µM
[4] = second compound 0.000949 µM, first compound 1 µM
[5] = second compound 0.000949 µM, first compound 3.16 µM
[6] = second compound 0.000949 µM, first compound 10 µM
[7] = second compound 0.003 µM, first compound 0.0316 µM
[8] = second compound 0.003 µM, first compound 0.1 µM
[9] = second compound 0.003 µM, first compound 0.316 µM
[10] = second compound 0.003 µM, first compound 1 µM
[11] = second compound 0.003 µM, first compound 3.16 µM
[12] = second compound 0.003 µM, first compound 10 µM
[13] = second compound 0.00949 µM, first compound 0.0316 µM
[14] = second compound 0.00949 µM, first compound 0.1 µM
[15] = second compound 0.00949 µM, first compound 0.316 µM
[16] = second compound 0.00949 µM, first compound 1 µM
[17] = second compound 0.00949 µM, first compound 3.16 µM
[18] = second compound 0.00949 µM, first compound 10 µM
[19] = second compound 0.03 µM, first compound 0.0316 µM
[20] = second compound 0.03 µM, first compound 0.1 µM
[21] = second compound 0.03 µM, first compound 0.316 µM
[22] = second compound 0.03 µM, first compound 1 µM
[23] = second compound 0.03 µM, first compound 3.16 µM
[24] = second compound 0.03 µM, first compound 10 µM
[25] = second compound 0.0949 µM, first compound 0.0316 µM
[26] = second compound 0.0949 µM, first compound 0.1 µM
[27] = second compound 0.0949 µM, first compound 0.316 µM
[28] = second compound 0.0949 µM, first compound 1 µM
[29] = second compound 0.0949 µM, first compound 3.16 µM
[30] = second compound 0.0949 µM, first compound 10 µM
[31] = second compound 0.3 µM, first compound 0.0316 µM
[32] = second compound 0.3 µM, first compound 0.1 µM
[33] = second compound 0.3 µM, first compound 0.316 µM
[34] = second compound 0.3 µM, first compound 1 µM
[35] = second compound 0.3 µM, first compound 3.16 µM
[36] = second compound 0.3 µM, first compound 10 µM
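Also: spheroids exposed to agents for seven days before readout.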

CC(C)NCC(C(=O)N1CCN(c2ncnc3c2C(C)CC3O)CC1)c1ccc(Cl)cc1 (stereo unspecified) + CCn1c(-c2cccnc2C(C)OC)c2c3cc(ccc31)N1CCOC(CC(NC(=O)C(C(C)C)N(C)C(=O)C3(F)CCN(C(=O)C#CC(C)(C)N(C)C)CC3)C(=O)N3CCCC(N3)C(=O)OCC(C)(C)C2)C1
IC50 (second compound 0.000949 µM): > 10 µM
IC50 (second compound 0.003 µM): > 10 µM
IC50 (second compound 0.00949 µM): > 10 µM
IC50 (second compound 0.03 µM): > 10 µM
IC50 (second compound 0.0949 µM): > 10 µM
IC50 (second compound 0.3 µM): > 10 µM
viability, T/C [1]: 102%
viability, T/C [2]: 99.4%
viability, T/C [3]: 95.9%
viability, T/C [4]: 79.9%
viability, T/C [5]: 74.6%
viability, T/C [6]: 55.8%
viability, T/C [7]: 88.7%
viability, T/C [8]: 94%
viability, T/C [9]: 93.8%
viability, T/C [10]: 81.7%
viability, T/C [11]: 81.4%
viability, T/C [12]: 62.2%
viability, T/C [13]: 95.7%
viability, T/C [14]: 103%
viability, T/C [15]: 97%
viability, T/C [16]: 87.6%
viability, T/C [17]: 76.8%
viability, T/C [18]: 66.1%
viability, T/C [19]: 89.1%
viability, T/C [20]: 104%
viability, T/C [21]: 88.4%
viability, T/C [22]: 84.7%
viability, T/C [23]: 70.2%
viability, T/C [24]: 58.6%
viability, T/C [25]: 99.9%
viability, T/C [26]: 104%
viability, T/C [27]: 89.5%
viability, T/C [28]: 80.7%
viability, T/C [29]: 69.8%
viability, T/C [30]: 56.2%
viability, T/C [31]: 98.7%
viability, T/C [32]: 101%
viability, T/C [33]: 90.7%
viability, T/C [34]: 78.8%
viability, T/C [35]: 70.3%
viability, T/C [36]: 49.7%

CC(C)n1nc(-c2ccc3oc(N)nc3c2)c2c(N)ncnc21 + CCn1c(-c2cccnc2C(C)OC)c2c3cc(ccc31)N1CCOC(CC(NC(=O)C(C(C)C)N(C)C(=O)C3(F)CCN(C(=O)C#CC(C)(C)N(C)C)CC3)C(=O)N3CCCC(N3)C(=O)OCC(C)(C)C2)C1
IC50 (second compound 0.000949 µM): 0.0217 µM
IC50 (second compound 0.003 µM): 0.0191 µM
IC50 (second compound 0.00949 µM): 0.0199 µM
IC50 (second compound 0.03 µM): 0.0217 µM
IC50 (second compound 0.0949 µM): 0.0212 µM
IC50 (second compound 0.3 µM): 0.0256 µM
viability, T/C (second compound 0.000949 µM, first compound 0.000316 µM): 93.8%
viability, T/C (second compound 0.000949 µM, first compound 0.001 µM): 107%
viability, T/C (second compound 0.000949 µM, first compound 0.00316 µM): 84.2%
viability, T/C (second compound 0.000949 µM, first compound 0.01 µM): 73.4%
viability, T/C [1]: 38.8%
viability, T/C [2]: 21.2%
viability, T/C (second compound 0.003 µM, first compound 0.000316 µM): 97.6%
viability, T/C (second compound 0.003 µM, first compound 0.001 µM): 97.3%
viability, T/C (second compound 0.003 µM, first compound 0.00316 µM): 85.6%
viability, T/C (second compound 0.003 µM, first compound 0.01 µM): 66.8%
viability, T/C [7]: 37.2%
viability, T/C [8]: 19.4%
viability, T/C (second compound 0.00949 µM, first compound 0.000316 µM): 88.2%
viability, T/C (second compound 0.00949 µM, first compound 0.001 µM): 115%
viability, T/C (second compound 0.00949 µM, first compound 0.00316 µM): 85.9%
viability, T/C (second compound 0.00949 µM, first compound 0.01 µM): 66.6%
viability, T/C [13]: 40.2%
viability, T/C [14]: 19.4%
viability, T/C (second compound 0.03 µM, first compound 0.000316 µM): 92%
viability, T/C (second compound 0.03 µM, first compound 0.001 µM): 96.3%
viability, T/C (second compound 0.03 µM, first compound 0.00316 µM): 96.2%
viability, T/C (second compound 0.03 µM, first compound 0.01 µM): 78.1%
viability, T/C [19]: 36.4%
viability, T/C [20]: 22.1%
viability, T/C (second compound 0.0949 µM, first compound 0.000316 µM): 89.3%
viability, T/C (second compound 0.0949 µM, first compound 0.001 µM): 98.2%
viability, T/C (second compound 0.0949 µM, first compound 0.00316 µM): 96.6%
viability, T/C (second compound 0.0949 µM, first compound 0.01 µM): 69.1%
viability, T/C [25]: 40.3%
viability, T/C [26]: 19.5%
viability, T/C (second compound 0.3 µM, first compound 0.000316 µM): 97.3%
viability, T/C (second compound 0.3 µM, first compound 0.001 µM): 99.4%
viability, T/C (second compound 0.3 µM, first compound 0.00316 µM): 86.9%
viability, T/C (second compound 0.3 µM, first compound 0.01 µM): 75%
viability, T/C [31]: 43.9%
viability, T/C [32]: 22.4%

CC(Nc1ccc2c(c1)OCCn1cc(N3C(=O)OCC3C(F)F)nc1-2)C(N)=O (stereo unspecified) + CCn1c(-c2cccnc2C(C)OC)c2c3cc(ccc31)N1CCOC(CC(NC(=O)C(C(C)C)N(C)C(=O)C3(F)CCN(C(=O)C#CC(C)(C)N(C)C)CC3)C(=O)N3CCCC(N3)C(=O)OCC(C)(C)C2)C1
IC50 (second compound 0.000949 µM): > 10 µM
IC50 (second compound 0.003 µM): > 10 µM
IC50 (second compound 0.00949 µM): > 10 µM
IC50 (second compound 0.03 µM): > 10 µM
IC50 (second compound 0.0949 µM): > 10 µM
IC50 (second compound 0.3 µM): > 10 µM
viability, T/C [1]: 106%
viability, T/C [2]: 93.9%
viability, T/C [3]: 94.2%
viability, T/C [4]: 72.2%
viability, T/C [5]: 70.4%
viability, T/C [6]: 65.8%
viability, T/C [7]: 90.8%
viability, T/C [8]: 93%
viability, T/C [9]: 93.7%
viability, T/C [10]: 86.2%
viability, T/C [11]: 98.9%
viability, T/C [12]: 56.8%
viability, T/C [13]: 94.4%
viability, T/C [14]: 101%
viability, T/C [15]: 84.9%
viability, T/C [16]: 96%
viability, T/C [17]: 85.9%
viability, T/C [18]: 55.7%
viability, T/C [19]: 96.6%
viability, T/C [20]: 91%
viability, T/C [21]: 99%
viability, T/C [22]: 82.5%
viability, T/C [23]: 95.5%
viability, T/C [24]: 65%
viability, T/C [25]: 103%
viability, T/C [26]: 94.1%
viability, T/C [27]: 78.6%
viability, T/C [28]: 93.7%
viability, T/C [29]: 77.9%
viability, T/C [30]: 62.1%
viability, T/C [31]: 100%
viability, T/C [32]: 101%
viability, T/C [33]: 86.6%
viability, T/C [34]: 83.7%
viability, T/C [35]: 84%
viability, T/C [36]: 71.8%
